# Results as given in article PMC6537752, “Molecular characterization of CHAD domains as inorganic polyphosphate-binding modules” (Life Science Alliance, 2019).
# Columns and labels:
# [1] = biological target: T1, ygiF-full length 1–433 (FL) (Escherichia coli, UniProt P30871); assay: malachite green phosphate release; assay type: biochemical; settings: 10 nM enzyme, 500 μM substrate, 20 mM Bis-Tris propane pH 8.5, 150 mM NaCl, 5 mM MgCl2, 37°C, 7 min
# T1 sequence (P30871 1-433): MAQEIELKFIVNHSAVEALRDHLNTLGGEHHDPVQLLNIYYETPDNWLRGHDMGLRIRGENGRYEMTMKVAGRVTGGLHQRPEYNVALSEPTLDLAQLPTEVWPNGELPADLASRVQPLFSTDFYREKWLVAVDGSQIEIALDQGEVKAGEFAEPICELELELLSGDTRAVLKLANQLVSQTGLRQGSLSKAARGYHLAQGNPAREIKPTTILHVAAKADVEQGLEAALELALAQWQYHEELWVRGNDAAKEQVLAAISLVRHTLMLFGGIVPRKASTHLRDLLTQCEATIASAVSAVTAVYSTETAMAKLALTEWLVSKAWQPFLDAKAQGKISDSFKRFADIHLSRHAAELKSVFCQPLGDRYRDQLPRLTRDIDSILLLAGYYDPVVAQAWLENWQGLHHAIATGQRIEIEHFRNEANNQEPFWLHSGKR
# ygiF-TTM 1–200 (TTM) = biological target: T2, ygiF-TTM 1–200 (TTM) (Escherichia coli, UniProt P30871); assay: malachite green phosphate release; assay type: biochemical; settings: 10 nM enzyme, 500 μM substrate, 20 mM Bis-Tris propane pH 8.5, 150 mM NaCl, 5 mM MgCl2, 37°C, 7 min
# T2 sequence (P30871 1-200): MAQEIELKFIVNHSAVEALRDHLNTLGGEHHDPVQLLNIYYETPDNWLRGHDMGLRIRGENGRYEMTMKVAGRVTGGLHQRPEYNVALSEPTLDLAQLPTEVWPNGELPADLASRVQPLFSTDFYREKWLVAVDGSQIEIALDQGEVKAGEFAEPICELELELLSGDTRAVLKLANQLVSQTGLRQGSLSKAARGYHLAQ
# CtCHAD = biological target: T3, CtCHAD (Chlorobaculum tepidum, UniProt Q8KE09); assay: grating-coupled interferometry competition against polyP-coated chip; assay type: binding
# T3 construct: gene CT0884; CHAD domain, residues 208-522; N-terminal 6xHis tag cleaved by TEV; E. coli BL21 (DE3) RIL; 36,194 D monomer; mainly dimer, some tetramer in solution
# T3 sequence (Q8KE09 208-522): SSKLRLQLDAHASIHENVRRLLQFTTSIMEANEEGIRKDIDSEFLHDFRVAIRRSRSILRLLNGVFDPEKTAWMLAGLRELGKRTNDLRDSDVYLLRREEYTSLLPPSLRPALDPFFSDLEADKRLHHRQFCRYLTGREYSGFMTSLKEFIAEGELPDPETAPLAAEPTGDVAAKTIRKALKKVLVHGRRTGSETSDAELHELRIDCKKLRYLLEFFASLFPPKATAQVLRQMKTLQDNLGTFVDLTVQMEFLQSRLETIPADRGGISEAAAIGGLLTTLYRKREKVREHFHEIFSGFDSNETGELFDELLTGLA
# [2] = biological target: the molecule itself; assay: SEC-RALS (size-exclusion chromatography with right-angle light scattering); apo CtCHAD, 2 mg/ml, 20 mM Hepes pH 7.5, 150 mM NaCl, Superdex 200 10/300 increase, 35°C
# [3] = biological target: the molecule itself; assay: SEC-RALS (size-exclusion chromatography with right-angle light scattering); CtCHAD incubated with 1 mM polyP (average chain length ∼30 Pi units) for 3 h at room temperature, 2 mg/ml, 20 mM Hepes pH 7.5, 150 mM NaCl, Superdex 200 10/300 increase, 35°C
# [4] = biological target: the molecule itself; assay: SEC; analytical size-exclusion chromatography, Superdex 200 Increase 10/300 GL, buffer A (50 mM PBS, pH 7.5, 500 mM NaCl), 500 μl of protein at 0.5 mg/ml, no polyP
IC50 (CtCHAD) [nM],Molecule,malachite green phosphate release [1],malachite green phosphate release (ygiF-TTM 1–200 (TTM)),stoichiometry N [2],stoichiometry N [3],stoichiometry N [4]
~200,O=P(O)(O)OP(=O)(O)OP(=O)(O)O [tripolyphosphate],CHAD domain stimulated the previously reported tripolyphosphatase activity of ygiF,"The substrates tested were ATP (Merck), sodium tripolyphosphate (Merck), and polyP",,,
,"CtCHAD^208–522 (CHAD domain–containing protein from Chlorobium tepidum) (domain or fragment, UniProt Q8KE09 208-522, looked up, CHAD domain of the C. tepidum CHAD domain–containing protein, UniProt Q8KE09, residues 208-522; synthetic gene; not shown: His6, N-terminal, cleaved) SSKLRLQLDAHASIHENVRRLLQFTTSIMEANEEGIRKDIDSEFLHDFRVAIRRSRSILRLLNGVFDPEKTAWMLAGLRELGKRTNDLRDSDVYLLRREEYTSLLPPSLRPALDPFFSDLEADKRLHHRQFCRYLTGREYSGFMTSLKEFIAEGELPDPETAPLAAEPTGDVAAKTIRKALKKVLVHGRRTGSETSDAELHELRIDCKKLRYLLEFFASLFPPKATAQVLRQMKTLQDNLGTFVDLTVQMEFLQSRLETIPADRGGISEAAAIGGLLTTLYRKREKVREHFHEIFSGFDSNETGELFDELLTGLA",,,4,≥ 4,2
